# Legend:
# [1] = system: A549 (human non-small cell lung carcinoma); experiment: In vitro evaluation, A549; format: cell-based; settings: A549, medium B, 72 hours, solvent DMSO
# Method: (§1) In vitro evaluations of the compound 5'-deoxy-5'-(monofluoroethylthio) adenosine (MFETA) were performed using the materials and conditions described in Tables 9 and 10.
# (§2) (a) Basal medium + RPMI 1640 + 20 mM HEPES;
# (§3) B--5% NuSerum IV + 5% FCS,
# (§4) *Incubation or exposure time is determined by the doubling time of the
# (§5) cell line such that each is exposed to the compound for 3-4 cell
# [2] = system: PSN-1 (human pancreatic carcinoma); experiment: In vitro evaluation, PSN-1; format: cell-based; settings: PSN1, PSN-1, medium C, 72 hours, solvent DMSO
# Method: as §1, §2, §3, §4, §5
# [3] = biological target: T1, T. b. brucei MTA phosphorylase (Trypanosoma brucei, UniProt Q57XS4); experiment: T. b. brucei MTA phosphorylase substrate assay; format: biochemical; settings: relative to MTA
# T1 construct: MTA or analogs as substrates
# Method: ^a MTA phosphorylase was assayed according to Ghoda et al., using 200
# μM MTA (saturating) or analogs as substrates. Specific activities of
# the dialyzed enzyme preparations were with 50 mM PO4, 104.97 n
# moles/mg protein/h; without PO4, 28.27 n moles/mg protein/h. Results
# are expressed as percent activity compared to as substrate with and
# without PO4, respectively.
# STO-1 (human melanoma) = experiment: In vitro evaluation, STO-1; format: cell-based; settings: STO-1, medium B, 72 hours
# Method: as §1
# (§6) ^(a) Basal medium = RPMI 1640 + 20 mM HEPES + 2 mM Lglutamine
# (§7) B = 5% FCS + 5% NuSerum IV
# [4] = system: MOLT-4 cells (MTA phosphorylase-containing); experiment: Growth inhibition of MOLT-4 cells; format: cell-based, human; settings: Homo sapiens, MOLT-4, 96 h
# Method: (§8) L1210, L5178Y and MOLT-4 cell lines were grown in RPMI 1640 and 10% Nu Serum (Collaborative Research Inc., Lexington, Mass.) and CCRF-CEM cells were grown in 10% Horse Serum (Gibco Laboratories, Grand Island, N.Y.) and maintained as previously described for suspension cultures by Pera et al. in Cancer Res. 46, 1148, 1986. Cell cultures (0.3×10^5 cells/ml) were treated with each compound at 0.1 to 1000 μM to determine the concentration that inhibited growth by 50% (IC50) at 48 hr for the L1210 and L5178Y cells and at 96 hr for the CCRF-CEM and MOLT-4 cells. The incubation times allowed approximately 4 cell doublings in each cell line. All compounds were freshly prepared prior to treatment by dissolving in DMSO and diluting in serum-free media. Cells were counted by electron particle counting (Model XF' Coulter Counter; Coulter Electronics, Hialeah, Fla.).
# (§9) For each compound, the concentrations required to inhibit cell growth by 50% (IC50 values) are shown in Table 7 for two murine leukemic cell lines, L1210 and L5178Y [MTA phosphorylase-deficient and MTA phosphorylase-containing, respectively] and two human leukemic cell lines, CCRF-CEM and MOLT-4 [MTA phosphorylase-deficient and MTA phosphorylase-containing, respectively]. ETA, MFETA, HETA and PTA had lower IC50 values in the L5178Y cells than in the L1210 cells. […] This differential is consistent with the possibility that, in L5178Y cells, MFETA is cleaved by MTA phosphorylase to the growth inhibitory metabolite, 5-monofluoroethylthioribose-1-phosphate (MFETR-1-P).
# HO (human melanoma) = experiment: In vitro evaluation, HO; format: cell-based; settings: medium B, 72 hours
# Method: as §1, §6, §7
# [5] = system: MCF7 (human breast carcinoma); experiment: In vitro evaluation, MCF7; format: cell-based; settings: MCF7, medium B, 72 hours, solvent DMSO
# Method: as §1, §2, §3, §4, §5
# [6] = system: HT-29 (human colon carcinoma); experiment: In vitro evaluation, HT-29; format: cell-based; settings: HT-29, medium B, 96 hours, solvent DMSO
# Method: as §1, §2, §3, §4, §5
# L1210 leukemic cells = experiment: Antitumor effects in L1210 leukemic mice; format: in vivo, DBA/2N mice
# Method: The antitumor effects of MFETA were evaluated in DBA/2N mice (Charles River) who received i.p. transplants of 10^6 L1210 leukemic cells or 10^6 L5178Y leukemic cells on day 0 according to protocols described previously by Bernacki et al., Cancer Res. 47, 799, 1987. The increase in life span (% ILS) of treated animals relative to untreated, tumor-bearing animals was used as the measure of their therapeutic effectiveness at specified dose regimens.
# ^a MFETA was administered i.p. on days 1, 2, 3, 4, 5 following i.p.
# implantation of 10^6 tumor cells on day 0.
# ^b % ILS is the percentage of increase in life span.
# [7] = system: A121 (human ovarian carcinoma); experiment: In vitro evaluation, A121; format: cell-based; settings: A121, medium B, 72 hours, solvent DMSO
# Method: as §1, §2, §3, §4, §5
# LOX (human melanoma) = experiment: In vitro evaluation, LOX; format: cell-based; settings: medium B, 72 hours
# Method: as §1, §6, §7
# SH-1 (human melanoma) = experiment: In vitro evaluation, SH-1; format: cell-based; settings: SH-1, medium B, 72 hours
# Method: as §1, §6, §7
# [8] = system: L1210 cells (MTA phosphorylase-deficient); experiment: Growth inhibition of L1210 cells; format: cell-based, mouse; settings: Mus musculus, L1210, 48 h
# Method: as §8, §9
# PANuT (human melanoma) = experiment: In vitro evaluation, PANuT; format: cell-based; settings: medium B, 72 hours
# Method: as §1, §6, §7
# T1 sequence (Q57XS4 entry or part of it): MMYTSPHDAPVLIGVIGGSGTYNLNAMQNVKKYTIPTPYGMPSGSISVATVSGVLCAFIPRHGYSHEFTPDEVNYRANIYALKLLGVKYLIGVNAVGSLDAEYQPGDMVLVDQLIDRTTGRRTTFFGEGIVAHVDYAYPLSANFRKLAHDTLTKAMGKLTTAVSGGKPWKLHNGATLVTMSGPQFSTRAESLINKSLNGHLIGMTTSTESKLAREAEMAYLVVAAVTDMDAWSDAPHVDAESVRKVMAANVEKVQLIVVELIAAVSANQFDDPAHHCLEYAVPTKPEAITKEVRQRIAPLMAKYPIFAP
smiles,measurement,setting,value
"Nc1ncnc2c1ncn2[C@@H]1O[C@H](CSCCF)[C@@H](O)[C@H]1O [MFETA, 5'-deoxy-5'-(monofluoroethylthio)adenosine]",IC50,[1],346 µM
same,IC50,[2],175 µM
same,Percent Control Activity,"[3]; +50 mM PO4, 200 μM substrate",75.3%
same,Percent Control Activity,"[3]; No PO4, 200 μM substrate",109.1%
same,IC50,STO-1 (human melanoma),296 ± 9.9 µM
same,IC50,[4],10 ± 3 µM
same,IC50,HO (human melanoma),333 ± 5.9 µM
same,IC50,[5],337 µM
same,IC50,[6],259 µM
same,% ILS (percentage of increase in life span),"L1210 leukemic cells; L1210, 10 mg/kg i.p. days 1-5",14%
same,Mean Death Weight,"L1210 leukemic cells; L1210, 10 mg/kg i.p. days 1-5",23.7 g
same,Survival Mean ± SD,"L1210 leukemic cells; L1210, 10 mg/kg i.p. days 1-5",7.2 ± 0.5 days
same,Survival Median,"L1210 leukemic cells; L1210, 10 mg/kg i.p. days 1-5",8 days
same,Survival Range,"L1210 leukemic cells; L1210, 10 mg/kg i.p. days 1-5",6 to 8 days
same,% ILS (percentage of increase in life span),"L1210 leukemic cells; L1210, 50 mg/kg i.p. days 1-5",14%
same,Mean Death Weight,"L1210 leukemic cells; L1210, 50 mg/kg i.p. days 1-5",24.5 g
same,Survival Mean ± SD,"L1210 leukemic cells; L1210, 50 mg/kg i.p. days 1-5",7.8 ± 0.2 days
same,Survival Median,"L1210 leukemic cells; L1210, 50 mg/kg i.p. days 1-5",8 days
same,Survival Range,"L1210 leukemic cells; L1210, 50 mg/kg i.p. days 1-5",7 to 8 days
same,% ILS (percentage of increase in life span),"L1210 leukemic cells; L1210, 100 mg/kg i.p. days 1-5",14%
same,Mean Death Weight,"L1210 leukemic cells; L1210, 100 mg/kg i.p. days 1-5",22.8 g
same,Survival Mean ± SD,"L1210 leukemic cells; L1210, 100 mg/kg i.p. days 1-5",7.9 ± 0.2 days
same,Survival Median,"L1210 leukemic cells; L1210, 100 mg/kg i.p. days 1-5",8 days
same,Survival Range,"L1210 leukemic cells; L1210, 100 mg/kg i.p. days 1-5",7 to 9 days
same,% ILS (percentage of increase in life span),"L1210 leukemic cells; L1210, 200 mg/kg i.p. days 1-5",28%
same,Mean Death Weight,"L1210 leukemic cells; L1210, 200 mg/kg i.p. days 1-5",18.4 g
same,Survival Mean ± SD,"L1210 leukemic cells; L1210, 200 mg/kg i.p. days 1-5",8.8 ± 0.8 days
same,Survival Median,"L1210 leukemic cells; L1210, 200 mg/kg i.p. days 1-5",9 days
same,Survival Range,"L1210 leukemic cells; L1210, 200 mg/kg i.p. days 1-5",6 to 11 days
same,% ILS (percentage of increase in life span),"L1210 leukemic cells; L1210, 300 mg/kg i.p. days 1-5",-72%
same,Mean Death Weight,"L1210 leukemic cells; L1210, 300 mg/kg i.p. days 1-5",18.8 g
same,Survival Mean ± SD,"L1210 leukemic cells; L1210, 300 mg/kg i.p. days 1-5",2.2 ± 0.2 days
same,Survival Median,"L1210 leukemic cells; L1210, 300 mg/kg i.p. days 1-5",2 days
same,Survival Range,"L1210 leukemic cells; L1210, 300 mg/kg i.p. days 1-5",2 to 3 days
same,IC50,[7],269 µM
same,IC50,LOX (human melanoma),268 ± 13 µM
same,IC50,SH-1 (human melanoma),319 ± 10 µM
same,IC50,[8],150 ± 50 µM
same,IC50,PANuT (human melanoma),160 ± 8.1 µM

# — patent US5563125A, “5'-deoxy-5'-(substituted)alkylthioribose compounds and their pharmaceutical compositions” (priority 1992, dated 1996)
